Assay results taken from patent publication EP0722733A1, “BLOOD VESSEL THICKENING INHIBITOR AND SMOOTH MUSCLE FIBER MIGRATION INHIBITOR EACH CONTAINING 7-THIAPROSTAGLANDIN E 1? COMPOUND AS ACTIVE INGREDIENT” (TEIJIN LIMITED, priority 1993, dated 1995).

Columns and labels:
[1] = tested on: rat vascular smooth muscle cells (SMC); assay: Suppression of PDGF-induced wandering of rat vascular smooth muscle cells in vitro (blind well chamber); assay type: cell-based, rats; conditions: PDGF 20 ng/ml, 4 hours; for No. of wandering cells: average ± standard error, n=3, control 176±19; for Suppression rate: cell wandering suppression rate = 100 - (T/C x 100)
Procedure: Media tissue of the chest arteries of the rats was sampled in accordance with the method of Ross (J. Cell Biol. 50: 172-186, 1971), then was incubated by a Delvecco Modified Eagle Medium (DMEM) containing 10% fetal calf serum in a CO2 incubator (95% air-5% CO2, 37°C, humidity 100%). The fourth generation cultured cells were used for the experiment. The rat vascular smooth muscle cells (SMC) were freed by a 0.008% trypsin-0.01% EDTA solution and made to wander in DMEM containing 0.1% bovine serum albumin. The wandering of the cells was observed using a 24-well blind well chamber made by Neuro Probe. In the lower chambers were placed 100 µl amounts of a mixture of the cell wandering factor (platelet derived growth factor PDGF 20 ng/ml) and the drug. These were covered by a Nuclepore filter (pore size, 8 µm) made by Corning. 100 µl amounts of the incubation solution containing the drug and in which 5 × 10^5 cells/ml of SMC were made to wander were placed in the top chambers and allowed to stand in a CO2 incubator for 4 hours. After the end of the incubation, the smooth muscle cells were immobilized for each filter, then were Propidum dyed. The cells in the lower chambers were counted in four fields under a laser microscope in a 0.48 mm^2 area field. The average was used as the number of wandering cells.
The rate of suppression of cell wandering (%) was found from the following formula. Cell wandering suppression rate (%) = 100 - (T/C × 100) [formula] wherein, C and T respectively show the number of wandering cells at the time of addition of cell wandering factor minus the number of wandering cells at the time of no addition of cell wandering factor and the number of wandering cells at the time of addition of the drug.

[2] = tested on: SD rats; assay: Acute toxicity test, oral; assay type: in vivo; conditions: male SD rats, 6 weeks old, deaths/animals
Procedure: (§1) The above test compound was tested for acute toxicity using SD rats (6 weeks old, SPE, male) (p.o.), whereupon the results shown in the following Table 4 were obtained.

[3] = Acute toxicity test, oral; assay type: in vivo; conditions: rat, in vivo, po, male SD rats; judged from Table 4
Procedure: as §1

[4] = tested on: Rat Carotid Artery Endothelium; assay: Suppression of intima thickening after balloon catheter trauma to rat carotid artery endothelium; assay type: in vivo, SD rats; conditions: for Intima: from 2 days before to 14 days after surgery, area of thickened intima; for Intima/Media / Media: 14 days after surgery; for Media: area of media; for Suppression rate: intima thickening suppression rate = (1-T/C) x 100 of Intima/Media versus solvent control
Procedure: The test was performed in the following manner in accordance with the method of Krauz et al. (Lab. Invest., vol. 49, p. 208, 1983). Male SD rats having a body weight of 400 to 500g was used. The neck of each rat was opened under anesthesia by sodium pentobarbitol, then a balloon catheter (Fogarty, 2F) was inserted from the right external carotid artery until the starting portion of the common carotid artery. The balloon was expanded by physiological saline to such an extent causing a light resistance, then the catheter was pulled out in that state up to the carotid artery to give trauma to the intima. This procedure was repeated three times, then the catheter was withdrawn and the external carotid artery was sewn up. After 14 days, the chest was opened under anesthesia by pentobarbitol, refluxing was performed from the left ventricle by physiological saline containing heparin (20 units/ml), then the left common carotid artery was excised and immobilized by neutral formalin solution. The immobilized carotid artery was dyed by Olsein dye, then the areas of the media and thickened portion of the intima were measured by an image resolution device (LUZEX2D).
The test drug began to be administered subcutaneously at a rate of 1.0 µg/rat/hr or 3.2 µg/rat/hr using a miniosmotic pump buried in the back of the rat from two days before the surgery and was continued until 14 days after the surgery. The activity of the drug in suppressing intima thickening was found from the following formula.

[5] = tested on: vascular smooth muscle cells derived from normal human arteries; assay: Suppression of PDGF-mediated migration of human vascular smooth muscle cells in vitro (Transwell chamber); assay type: cell-based; conditions: human PDGF 10 ng/ml, 6 hours; for No. of wandering cells: average cell count of five fields ± standard deviation, control 86.4±20.1
Procedure: To investigate the activity of the tested compound to inhibit cell migration, the migrated cells mediated by human platelet derived growth factor (PDGF) were measured in the following way using the vascular smooth muscle cells derived from normal human arteries and according to the method of MaCarthy et al. (J. Cell. Biol. 97, 772-777 (1983)). That is, a Transwell Chamber (Costar Co., registered trademark) was used to measure the inhibitory action. The chamber was divided into two layers, upper and lower, by a 8 µm pore size membrane filter (PVP - free polycarbonate filter, Nucleopore Co., registered trademark). The filter was precoated on its lower surface with 5 µg of rat tail collagen type 1 (Becton Dickinson Co.) To the upper chamber (100 µl) was added a 1.5 × 10^6/ml suspension of cells (DMEM (made by Flow Laboratories Co.) containing 0.1% BSA (made by Nakalai Tesque Co.) In the lower chamber (600 µl) was placed the same solution diluted by human PDGF (made by Becton Dickinson) to give a final concentration of 10 ng/ml. At this time, the tested compound was added in different concentrations to both the upper and lower chambers. The chambers were incubated at 37°C under 5% CO2 for 6 hours, then the filter was removed, fixed in 99.7% methanol, then stained with hematoxylin and eosin. The cells on the upper surface of the filter were removed by wiping with a cotton swab and the cells that had migrated to the lower surface of the filter were counted under a high output microscope (×200, ×400). Usually, five fields were counted per filter. The migrated cells were shown by the average cell count of five fields ± standard deviation. The significant difference was examined by the Student's two-tailed t test.

[6] = 1.0 µg/rat/hr s.c. by miniosmotic pump

CCCC[C@@H](C)C[C@H](O)/C=C/[C@H]1[C@H](O)CC(=O)[C@@H]1SCCCCCC(=O)OC [Test Compound, (17R)-17,20-dimethyl-7-thiaprostaglandin E1 methyl ester]
No. of wandering cells ([1]; 10^-8 M): 107±15##(T) cells/0.48 mm^2
Suppression rate ([1]; 10^-8 M): 39.2%
No. of wandering cells ([1]; 10^-9 M): 117±19##(T) cells/0.48 mm^2
Suppression rate ([1]; 10^-9 M): 33.5%
No. of deaths ([2]; 20 mg/kg p.o.): 0/2
No. of deaths ([2]; 100 mg/kg p.o.): 1/2
No. of deaths ([2]; 200 mg/kg p.o.): 2/2
LD50 [3]: ~100 mg/kg
Intima ([4]; 1.0 µg/rat/hr s.c. by miniosmotic pump, average, standard error in the row below): 0.118 mm²
Intima/Media [4, 6]: 0.842
Media [4, 6]: 0.14 mm²
Suppression rate ([4]; 1.0 µg/rat/hr s.c.): 13.1%
Intima ([4]; 3.2 µg/rat/hr s.c. by miniosmotic pump, P < 0.01 vs control): 0.093 mm²
Intima/Media ([4]; 3.2 µg/rat/hr s.c. by miniosmotic pump, P < 0.05 vs control): 0.630
Media ([4]; 3.2 µg/rat/hr s.c. by miniosmotic pump): 0.158 mm²
Suppression rate ([4]; 3.2 µg/rat/hr s.c.): 31.4%
Suppression rate ([5]; 10^-7 M): 78.0%
No. of wandering cells ([5]; 10^-7 M): 19.0±11.8
Suppression rate ([5]; 10^-8 M): 41.0%
No. of wandering cells ([5]; 10^-8 M): 51.0±9.5
Suppression rate ([5]; 10^-9 M): 22.2%
No. of wandering cells ([5]; 10^-9 M): 67.2±15.7

CCCCC[C@H](O)/C=C/[C@H]1[C@H](O)CC(=O)[C@@H]1CCCCCCC(=O)O [Prostaglandin E1, reference compound]
No. of wandering cells ([5]; 10^-7 M): 82.6±17.8
No. of wandering cells ([5]; 10^-8 M): 82.4±6.9
Suppression rate ([5]; 10^-9 M): No significance
No. of wandering cells ([5]; 10^-9 M): 91.0±9.8
